Results published in ChEMBL document CHEMBL1201862, “PubChem BioAssay data set” (2004).
The source made the active and inactive calls.

What was measured:
[1] = HepG2 cell cytotoxicity, dose response, cytotoxicity control, ATP luminescence, cherry-pick, set 6 (AID 1053125); format: functional, cell-based
[2] = target: T1, DNA repair protein RAD52 homolog (Homo sapiens, UniProt P43351); format: functional, biochemical
T1 sequence (P43351 whole entry): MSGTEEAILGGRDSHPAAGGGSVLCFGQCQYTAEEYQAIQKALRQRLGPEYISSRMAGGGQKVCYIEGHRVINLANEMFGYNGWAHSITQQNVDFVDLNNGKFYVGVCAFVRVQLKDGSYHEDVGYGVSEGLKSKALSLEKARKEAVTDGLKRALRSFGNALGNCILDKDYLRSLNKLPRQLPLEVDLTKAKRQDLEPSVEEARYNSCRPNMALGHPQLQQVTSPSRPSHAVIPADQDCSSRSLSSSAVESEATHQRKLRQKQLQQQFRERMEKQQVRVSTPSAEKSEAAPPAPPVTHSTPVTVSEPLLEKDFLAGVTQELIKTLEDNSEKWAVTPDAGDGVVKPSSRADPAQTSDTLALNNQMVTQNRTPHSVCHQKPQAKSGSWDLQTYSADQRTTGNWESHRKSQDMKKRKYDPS

cells [3] = assay: cells
[4] = target: T2, Zinc finger protein mex-5 (Caenorhabditis elegans, UniProt Q9XUB2); assay: MEX-5/TCR-2 RNA interaction inhibitors, dose response, biochemical, C. elegans, fluorescence polarization (AID 1960)
T2 sequence (Q9XUB2 whole entry): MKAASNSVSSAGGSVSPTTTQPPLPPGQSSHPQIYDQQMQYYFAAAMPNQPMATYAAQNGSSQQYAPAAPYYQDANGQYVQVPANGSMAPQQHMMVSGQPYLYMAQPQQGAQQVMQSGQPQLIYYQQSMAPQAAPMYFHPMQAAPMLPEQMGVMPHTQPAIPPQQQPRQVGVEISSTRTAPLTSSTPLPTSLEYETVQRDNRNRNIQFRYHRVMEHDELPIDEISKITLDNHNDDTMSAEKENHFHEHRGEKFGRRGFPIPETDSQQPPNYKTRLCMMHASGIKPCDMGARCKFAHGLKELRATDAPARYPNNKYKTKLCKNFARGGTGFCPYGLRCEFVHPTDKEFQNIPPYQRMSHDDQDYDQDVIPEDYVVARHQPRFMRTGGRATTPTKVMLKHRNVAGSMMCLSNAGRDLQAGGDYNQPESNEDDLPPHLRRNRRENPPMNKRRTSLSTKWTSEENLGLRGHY

[5] = target: T3, RNA-binding protein pos-1 (Caenorhabditis elegans, UniProt G5EF15); assay: inhibitors of POS-1/mex-3 RNA binding, dose response, biochemical, fluorescence polarization (AID 1964);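 further: purified POS-1 fused to maltose binding protein made in E. coli; potency of compounds blocking POS-1 binding to fluorescent RNA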
T3 sequence (G5EF15 whole entry): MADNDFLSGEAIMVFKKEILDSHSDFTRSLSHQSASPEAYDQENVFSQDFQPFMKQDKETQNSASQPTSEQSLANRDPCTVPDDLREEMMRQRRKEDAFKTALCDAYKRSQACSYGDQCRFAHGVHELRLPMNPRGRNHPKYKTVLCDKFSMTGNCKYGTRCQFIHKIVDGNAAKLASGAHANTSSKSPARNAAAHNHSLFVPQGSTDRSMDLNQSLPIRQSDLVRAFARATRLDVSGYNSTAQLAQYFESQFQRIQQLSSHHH

Kallikrein-7 = Kallikrein-7 (Homo sapiens, UniProt P49862); assay: Fluorescence Intensity-based biochemical primary high throughput dose response assay to identify activators of kallikrein-7 (K7) zymogen.
[6] = EDANS-DABCYL fluorescence interference, concentration series, dose response, artefact control for kallikrein-7 zymogen activator project, biochemical, fluorescence intensity, triplicate (AID 720493)
[7] = target: 1-phosphatidylinositol 4,5-bisphosphate phosphodiesterase gamma-1 (Homo sapiens, UniProt P19174); assay: Counterscreen for inhibitors of phospholipase C isozymes (PLC-B3): Fluorescence-based biochemical high throughput dose response assay to identify inhibitors of phospholipase C isozymes (PLC-gamma1).
[8] = target: 1-phosphatidylinositol 4,5-bisphosphate phosphodiesterase beta-3 (Homo sapiens, UniProt Q01970); assay: Fluorescence-based biochemical high throughput dose response assay to identify inhibitors of phospholipase C isozymes (PLC-B3).
[9] = target: T4, High affinity choline transporter 1 (Homo sapiens, UniProt Q9GZV3); assay: CHT choline uptake inhibitors, dose response, cell-based, HEK-293 hCHT, [3H]-choline uptake (AID 652177); format: functional
T4 sequence (Q9GZV3 whole entry): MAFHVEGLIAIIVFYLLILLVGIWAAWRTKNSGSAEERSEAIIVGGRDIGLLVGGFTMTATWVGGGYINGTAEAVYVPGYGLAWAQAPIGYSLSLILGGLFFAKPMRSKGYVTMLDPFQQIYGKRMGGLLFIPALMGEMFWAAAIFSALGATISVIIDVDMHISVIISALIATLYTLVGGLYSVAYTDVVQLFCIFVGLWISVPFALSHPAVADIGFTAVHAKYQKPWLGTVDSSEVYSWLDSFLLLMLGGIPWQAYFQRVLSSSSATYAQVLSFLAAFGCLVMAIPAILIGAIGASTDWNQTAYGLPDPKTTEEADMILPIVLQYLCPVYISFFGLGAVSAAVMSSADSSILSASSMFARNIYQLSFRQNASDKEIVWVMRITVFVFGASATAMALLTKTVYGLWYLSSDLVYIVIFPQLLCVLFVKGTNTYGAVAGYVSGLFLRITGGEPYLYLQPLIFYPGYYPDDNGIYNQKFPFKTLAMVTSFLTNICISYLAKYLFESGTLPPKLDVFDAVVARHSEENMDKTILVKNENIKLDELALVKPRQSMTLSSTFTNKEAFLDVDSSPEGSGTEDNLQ

[10] = target: T5, Methionyl-tRNA synthetase, putative (Trypanosoma brucei brucei, UniProt Q38C91); format: functional, Trypanosoma brucei brucei strain 927/4 GUTat10.1
T5 sequence (Q38C91 whole entry): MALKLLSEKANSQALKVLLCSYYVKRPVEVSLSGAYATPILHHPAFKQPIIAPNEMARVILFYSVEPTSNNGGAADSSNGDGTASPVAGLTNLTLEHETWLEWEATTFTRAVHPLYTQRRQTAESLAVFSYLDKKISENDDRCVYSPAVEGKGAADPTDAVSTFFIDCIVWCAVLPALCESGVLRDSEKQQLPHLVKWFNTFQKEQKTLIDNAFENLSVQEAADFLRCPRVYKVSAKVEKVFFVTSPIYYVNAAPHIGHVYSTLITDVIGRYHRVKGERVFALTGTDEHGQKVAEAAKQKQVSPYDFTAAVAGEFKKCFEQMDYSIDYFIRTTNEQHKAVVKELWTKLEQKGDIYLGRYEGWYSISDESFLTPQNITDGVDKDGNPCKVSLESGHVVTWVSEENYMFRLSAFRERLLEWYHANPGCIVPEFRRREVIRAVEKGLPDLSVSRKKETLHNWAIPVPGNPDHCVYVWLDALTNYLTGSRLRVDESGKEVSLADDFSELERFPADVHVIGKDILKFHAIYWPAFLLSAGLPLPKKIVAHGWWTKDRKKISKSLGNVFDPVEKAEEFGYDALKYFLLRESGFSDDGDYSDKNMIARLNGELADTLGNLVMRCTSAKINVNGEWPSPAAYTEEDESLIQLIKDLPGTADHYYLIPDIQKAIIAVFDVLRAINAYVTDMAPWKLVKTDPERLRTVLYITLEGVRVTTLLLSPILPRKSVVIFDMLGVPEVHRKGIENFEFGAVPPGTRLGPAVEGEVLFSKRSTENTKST

[11] = target: T5, Methionyl-tRNA synthetase, putative; format: functional, Trypanosoma brucei brucei strain 927/4 GUTat10.1; remark: listed apart in the source
[12] = Late stage counterscreen for inhibitors of Trypanosoma brucei methionyl tRNA synthetase (MetRS): Luminescence-based cell-based high throughput dose response assay to identify compounds that are cytotoxic to Jurkat human T lymphocyte cells.; format: functional
[13] = Counterscreen for inhibitors of Trypanosoma brucei methionyl tRNA synthetase (MetRS): Luminescence-based cell-based high throughput dose response assay to identify compounds that are cytotoxic to Jurkat human T lymphocyte cells.; format: functional
[14] = HEK293 cell cytotoxicity, dose response, cytotoxicity control, plate reader, cherry-picked samples (AID 743446); format: functional, cell-based
[15] = MC4R antagonists, dose response, counter-screen for LGR2 antagonist project, cell-based, plate reader, cherry pick (AID 743444); format: functional;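 further: transfected HEK 293 cells stimulated with alpha-MSH peptide; potency of inhibitors of the alpha-MSH evoked signal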
[16] = LGR2 antagonists, dose response, cell-based, HEK293, CRE-luciferase reporter, cherry pick, set 2 (AID 743343); format: functional;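 further: transfected cells were stimulated with diluted bursicon conditioned medium after compound addition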
[17] = A549 cell cytotoxicity, dose response, cytotoxicity control, plate reader, cherry-pick, antagonist series (AID 743412); format: functional, cell-based
[18] = A375 melanoma cell cytotoxicity, dose response, counter-screen for MITF inhibitor project, CellTiter-Glo luminescence, dry powder, set 2 (AID 624489); format: functional, cell-based; details: A-375;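 further: actives are compounds lowering A375 viability meaning general cytotoxicity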
[19] = A375 melanoma cell viability loss, dose response, counter-screen for MITF inhibitor project, CellTiter-Glo luminescence, dry powder, set 4 (AID 624364); format: functional, cell-based; details: A-375;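 further: A375 melanoma cells are MITF independent so this is a counter screen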
Major prion protein = Major prion protein (Homo sapiens, UniProt P04156); format: functional, cell-based
cells [20] = assay: cells; remark: listed apart in the source
[21] = non-specific cell cytotoxicity, dose response, cytotoxicity control for PAX8 inhibitor project, plate reader, dry powder samples (AID 743021); format: functional, cell-based
Paired box protein Pax-8 = Paired box protein Pax-8 (Homo sapiens, UniProt Q06710); assay: inhibitors of PAX8-driven TPO luciferase reporter, dose response, RMG-I cells, cherry-pick (AID 687027); format: functional, cell-based;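 further: luciferase reporter driven by Pax8 target thyroperoxidase promoter measured by SteadyGlo luminescence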
[22] = target: T6, Hepatocyte nuclear factor 4-alpha (Homo sapiens, UniProt P41235); format: functional, cell-based;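 further: biochemical luminescence-based dose-response counterscreen measuring inhibition of HNF4 dimerization, run alongside a screen for blockers of ABHD5–perilipin-5 interaction; split luciferase complementation of HNF4 fusion proteins in cell lysate measuring dimerization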
T6 sequence (P41235 whole entry): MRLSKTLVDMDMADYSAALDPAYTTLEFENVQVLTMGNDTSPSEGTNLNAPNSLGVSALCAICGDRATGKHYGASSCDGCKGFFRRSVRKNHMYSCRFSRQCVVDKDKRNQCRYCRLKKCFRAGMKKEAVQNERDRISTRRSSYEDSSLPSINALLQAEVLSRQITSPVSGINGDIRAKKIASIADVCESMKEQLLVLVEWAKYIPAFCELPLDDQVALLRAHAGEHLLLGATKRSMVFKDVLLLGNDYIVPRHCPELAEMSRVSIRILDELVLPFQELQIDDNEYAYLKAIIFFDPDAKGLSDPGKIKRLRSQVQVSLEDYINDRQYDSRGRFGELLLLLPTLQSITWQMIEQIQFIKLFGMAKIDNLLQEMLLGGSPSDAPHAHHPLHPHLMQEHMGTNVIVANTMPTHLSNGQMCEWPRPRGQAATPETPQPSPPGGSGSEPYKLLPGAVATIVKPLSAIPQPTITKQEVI

[23] = inhibitors of PGC1a acetylation in cells, dose response, cell-based, cherry-picked samples (AID 720514); format: functional;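 further: potency may reflect raised or lowered acetylation signal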
[24] = HepG2 cell cytotoxicity, dose response, cytotoxicity control, cherry-picked samples (AID 1159577); format: functional, cell-based
[25] = P. falciparum Dd2 growth inhibitors, dose response, SYBR Green, cherry-picked samples (AID 1159567); format: functional, cell-based
[26] = HEK293 cell cytotoxicity, dose response, cytotoxicity control, cherry-picks, set 5 (AID 1053117); format: functional, cell-based
[27] = inhibitors of fibronectin matrix deposition, dose response, AH1F cells, Alexa488-FN fluorescence, cherry-picks (AID 1035475); format: functional, cell-based
[28] = HepG2 cell cytotoxicity, dose response, cytotoxicity control, cherry-picks, set 5 (AID 1053118); format: functional, cell-based
[29] = HEK293T cytotoxicity, dose response, cytotoxicity control for miR-122 modulator project, cell-based, inhibitor set, cherry-pick, set 2 (AID 720697); format: functional
[30] = miR-122 activators in hepatoma reporter cells, dose response, cell-based, Huh7 psiCHECK-miR122, Renilla luciferase, cherry-picked (AID 651956); format: functional;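 further: huh7 hepatoma cells stably carrying a psiCHECK-2 miR-122 sensor plasmid; renilla luciferase signal reporting endogenous miR-122 activity after 48 h compound exposure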

Cc1cccn2c(=O)c3cc(C(N)=S)c(=N)n(CCCN4CCOCC4)c3nc12
AC50 [1]: > 52 µM (inactive)
AC50 [2]: 3.43 µM (active)
AC50 (cells [3]): 5.15 µM (active)

Cc1ccc(/C=C2\Oc3c(ccc(O)c3CN3CCN(C)CC3)C2=O)cc1
EC50 [4]: 153 µM (active)
EC50 [5]: 43.7 µM (active)
EC50 (Kallikrein-7): 12.5 µM (inactive)
EC50 [6]: > 7.73 µM (active)

O=C(CCNc1cc(Cl)cc(Cl)c1)c1cccs1
IC50 [7]: > 123 µM (inactive)
IC50 [8]: > 123 µM (inactive)

COc1ccc(C(=O)NCCN2CCCC2)cc1OC1CCN(C(C)C)CC1
IC50 [9]: 1.84 µM (active)

CN1CC(=O)N2C(c3cccc([N+](=O)[O-])c3)c3[nH]c4ccccc4c3C[C@H]2C1=O (stereo partly drawn)
IC50 [10]: 0.798 µM (active)
IC50 [11]: 0.393 µM (active)
IC50 [12]: > 83.3 µM (inactive)
IC50 [13]: 83.3 µM (inactive)

N#C[C@@H]1[C@H](c2ccc(C#Cc3ccccc3F)cc2)[C@@H](CO)N1C(=O)C1CC1
AC50 [14]: 33.5 µM (active)
AC50 [15]: 5.44 µM (active)
AC50 [16]: 5.15 µM (active)
AC50 [17]: 24.9 µM (active)

O=C1C(NS(=O)(=O)c2cccs2)=C(N2CCOCC2)C(=O)c2ccccc21
AC50 [18]: > 70 µM (inactive)
AC50 [19]: > 70 µM (inactive)

CC(=O)Nc1ccc2nc(C)c(CC=C(Cl)Cl)c(O)c2c1
IC50 (Major prion protein): 10.2 µM (inactive)
IC50 (cells [20]): > 138 µM (inactive)

C#CCN(C[C@@H]1[C@@H](OC(=O)NCCCCCC)[C@@H](OC(=O)NCCCCCC)Cn2c(=O)ccc(=O)n21)S(=O)(=O)c1ccc(C)cc1
AC50 [21]: 38.3 µM (active)
AC50 (Paired box protein Pax-8): 4.18 µM (active)
IC50 [22]: 34.7 µM (inactive)
AC50 [23]: 4.88 µM (active)

CO[C@H]1CN(C)C(=O)c2cc(NC(=O)Nc3ccc(Cl)c(Cl)c3)ccc2OC[C@H](C)NC[C@H]1C
AC50 [24]: 12.1 µM (active)
AC50 [25]: 10.4 µM (active)
AC50 [26]: 26.6 µM (active)
AC50 [27]: > 70 µM (inactive)
AC50 [28]: 18.5 µM (active)
AC50 [29]: 18.1 µM (active)
AC50 [30]: 23.2 µM (active)
